Data: patent US20230381155A1, “TREATMENT OF BREAST CANCER USING COMBINATION THERAPIES COMPRISING GDC-9545 AND GDC-0077” (Genentech, Inc., priority 2021, published 2023)
“Also recorded” adds a separate entry of the source.

Tests used:
frontline patients = settings: NCT01602380; cited from earlier work
[1] = system: ER+ breast cancer xenograft models; assay: xenograft models, efficacy versus fulvestrant; assay type: in vivo; settings: fulvestrant dosed according to a clinically relevant dosing scheme
pAkt, pPRAS40, pS6RP = assay: downstream PI3K pathway markers; settings: nonclinical studies
[2] = system: PIK3CA-mutant breast cancer cell lines; assay: proliferation and apoptosis in PIK3CA-mutant breast cancer cell lines; assay type: cell-based; settings: nonclinical studies
[3] = system: ESR1 wildtype T-47D (PIK3CA.H1047R) cells; assay: CyQUANT relative viability, T-47D wildtype ESR1; assay type: cell-based; settings: 300 nM GDC-9545, 80 nM GDC-0077, alone or combined; 0.1 nmol/L E2; 6 to 8 days
Procedure: Combination of GDC-9545 and GDC-007 was investigated and compared to efficacy of each single agent and to an AI+palbociclib control. ESR1 wildtype MCF-7 (PIK3CA.E545K) and T-47D (PIK3CA.H1047R) cells, and engineered ESR1 mutant cells [MCF-7.ER.Y537S, T-47D.ER.D538G] were grown under standard cell culture conditions in RPMI media with 10% fetal bovine serum. One day prior to the addition of drugs, cells were seeded in 384-well plates in phenol red-free RPMI with 10% charcoal-stripped fetal bovine serum in order to deprive the cells of hormones. Single agent 300 nM GDC-9545, 80 nM GDC-0077, 125 nM palbociclib or a combination thereof, were tested in quadruplicate in the presence of 0.1 nmol/L estradiol (E2) during a 6-day or 8-day incubation period. The absence of E2 in the media (−E2) serves to mimic treatment with an Aromatase Inhibitor (AI). The combination of E2 withdrawal plus palbociclib—reflecting the current standard of care for metastatic breast cancer—was included. Drug concentrations of GDC-0077 and palbociclib were chosen to be clinically relevant, based on human exposures. […] The relative number of viable cells at the 6/8-day timepoint was determined by CyQUANT (ThermoFisher, C7026).

[4] = system: other Class I PI3Ks, including the β, δ, and γ isoforms; assay: biochemical inhibition of other Class I PI3Ks; settings: δ, and γ isoforms versus PI3K-α
mutant p110a = assay: degradation of mutant p110a; assay type: cell-based; settings: nonclinical studies
Description: Without being bound by any particular theory, GDC-0077 appears to exert its activity by binding to the adenosine binding site of p110a, thereby inhibiting the phosphorylation of membrane-bound phosphatidylinositol 4,5-bisphosphate (PIP2) to phosphatidylinositol 3,4,5-trisphophate (PIP3). This inhibition decreases downstream activation of pathway effectors including Akt and S6RP, resulting in decreased cellular proliferation, metabolism, and angiogenesis.

[5] = system: human breast cancer xenograft models harboring PIK3CA mutations; assay: tumor growth in breast cancer xenograft models; assay type: in vivo; settings: nonclinical studies
[6] = target: Class I alpha isoform of phosphatidylinositol 3-kinase (PI3K-α) (Homo sapiens, UniProt P42336); assay: biochemical inhibition of PI3K-α
Class I alpha isoform of phosphatidylinositol 3-kinase (PI3K-α), sequence (P42336 whole entry, canonical isoform): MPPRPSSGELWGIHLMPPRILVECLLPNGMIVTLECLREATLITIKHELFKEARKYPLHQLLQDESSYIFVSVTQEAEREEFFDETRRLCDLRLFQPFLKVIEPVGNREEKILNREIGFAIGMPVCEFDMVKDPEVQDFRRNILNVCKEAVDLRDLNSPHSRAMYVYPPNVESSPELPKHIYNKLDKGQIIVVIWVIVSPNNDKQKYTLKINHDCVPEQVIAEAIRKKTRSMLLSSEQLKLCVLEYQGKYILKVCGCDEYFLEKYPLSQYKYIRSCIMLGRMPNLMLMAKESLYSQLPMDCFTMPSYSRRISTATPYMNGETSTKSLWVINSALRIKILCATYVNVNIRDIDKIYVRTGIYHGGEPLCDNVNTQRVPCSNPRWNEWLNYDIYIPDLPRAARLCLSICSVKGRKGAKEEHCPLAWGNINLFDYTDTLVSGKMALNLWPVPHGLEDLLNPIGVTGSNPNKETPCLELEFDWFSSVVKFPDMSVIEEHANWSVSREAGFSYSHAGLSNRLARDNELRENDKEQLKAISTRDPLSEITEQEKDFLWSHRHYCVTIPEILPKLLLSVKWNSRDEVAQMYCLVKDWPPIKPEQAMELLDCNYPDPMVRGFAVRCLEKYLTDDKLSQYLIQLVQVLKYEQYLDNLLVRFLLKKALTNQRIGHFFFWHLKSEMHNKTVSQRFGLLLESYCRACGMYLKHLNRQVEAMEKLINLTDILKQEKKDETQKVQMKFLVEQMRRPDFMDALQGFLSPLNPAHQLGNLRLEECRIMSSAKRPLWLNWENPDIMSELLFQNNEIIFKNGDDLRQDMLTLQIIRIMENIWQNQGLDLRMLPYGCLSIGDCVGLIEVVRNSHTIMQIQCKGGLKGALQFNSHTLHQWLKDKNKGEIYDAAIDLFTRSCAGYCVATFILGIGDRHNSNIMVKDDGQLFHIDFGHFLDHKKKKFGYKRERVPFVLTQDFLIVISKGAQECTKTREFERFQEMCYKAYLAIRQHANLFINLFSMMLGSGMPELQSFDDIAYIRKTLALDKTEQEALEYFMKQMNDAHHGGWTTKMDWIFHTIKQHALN
Class I alpha isoform of phosphatidylinositol 3-kinase (PI3K-α), sequence (P27986 whole entry partner, canonical isoform): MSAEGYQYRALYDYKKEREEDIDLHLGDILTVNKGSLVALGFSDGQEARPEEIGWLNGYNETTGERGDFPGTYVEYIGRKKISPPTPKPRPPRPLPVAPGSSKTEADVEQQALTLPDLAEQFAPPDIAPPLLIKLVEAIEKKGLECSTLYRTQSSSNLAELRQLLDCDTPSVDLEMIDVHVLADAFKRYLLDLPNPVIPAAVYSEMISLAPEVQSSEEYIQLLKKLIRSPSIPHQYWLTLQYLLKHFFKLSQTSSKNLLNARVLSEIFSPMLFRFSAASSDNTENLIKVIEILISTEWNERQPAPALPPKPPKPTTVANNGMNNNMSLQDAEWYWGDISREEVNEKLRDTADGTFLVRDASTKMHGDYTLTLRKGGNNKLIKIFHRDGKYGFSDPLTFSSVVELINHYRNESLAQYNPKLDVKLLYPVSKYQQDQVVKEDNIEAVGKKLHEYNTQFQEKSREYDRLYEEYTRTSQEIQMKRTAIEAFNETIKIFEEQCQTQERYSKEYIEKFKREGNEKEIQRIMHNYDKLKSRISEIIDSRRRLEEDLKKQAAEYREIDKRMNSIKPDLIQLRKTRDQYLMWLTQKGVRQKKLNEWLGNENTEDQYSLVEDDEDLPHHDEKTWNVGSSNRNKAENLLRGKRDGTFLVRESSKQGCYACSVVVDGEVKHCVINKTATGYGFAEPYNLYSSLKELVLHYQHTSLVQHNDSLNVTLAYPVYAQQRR

[7] = system: tumor cells bearing mutant p110a; assay: potency in tumor cells, mutant versus wild-type p110a; assay type: cell-based
[8] = system: patients with measurable disease; assay: clinical study of single agent GDC-0077, RECIST v1.1 response; assay type: in vivo, human; settings: among 20 patients
Description: In one study using single agent administration of GDC-0077, among 20 patients with measurable disease treated with a 6-mg, 9-mg, or 12-mg QD starting dose of GDC-0077 as a single agent, 5 patients (25%) achieved PRs, while 9 patients (45%) achieved clinical benefit (defined as the percentage of patients achieving confirmed Response Evaluation Criteria in Solid Tumors, Version 1.1 [RECIST v1.1]-defined CR, PR, and/or SD [non-complete response/non-progressive disease for patients with non-measurable disease at baseline] for 24 weeks). Further, 14 of the 20 patients were enrolled at the 6-mg or 9-mg QD starting dose, and 3 patients had received prior treatment with a CDK4/6i.

[9] = assay type: in vitro ADME
T-47D.ER.D538G cells = assay: CyQUANT relative viability, T-47D.ER.D538G; assay type: cell-based; settings: 300 nM GDC-9545, 80 nM GDC-0077, alone or combined; 0.1 nmol/L E2; 6 to 8 days
Procedure: (§1) Cells were treated as shown for 6 to 8 days, and relative viability was assessed. *p<0.0001, parametric t-test.

MCF-7.ER.Y537S cells = assay: CyQUANT relative viability, MCF-7.ER.Y537S; assay type: cell-based; settings: 300 nM GDC-9545, 80 nM GDC-0077, alone or combined; 0.1 nmol/L E2; 6 to 8 days
Procedure: as §1
One day prior to the addition of drugs, cells were seeded in 384-well plates in phenol red-free RPMI with 10% charcoal-stripped fetal bovine serum in order to deprive the cells of hormones. Single agent 300 nM GDC-9545, 80 nM GDC-0077, 125 nM palbociclib or a combination thereof, were tested in quadruplicate in the presence of 0.1 nmol/L estradiol (E2) during a 6-day or 8-day incubation period. The absence of E2 in the media (−E2) serves to mimic treatment with an Aromatase Inhibitor (AI). The combination of E2 withdrawal plus palbociclib—reflecting the current standard of care for metastatic breast cancer—was included. Drug concentrations of GDC-0077 and palbociclib were chosen to be clinically relevant, based on human exposures. 300 nM GDC-9545 is a saturating concentration that is lower than the human dose equivalent of 30 mg. The relative number of viable cells at the 6/8-day timepoint was determined by CyQUANT (ThermoFisher, C7026).

[10] = system: ER+ breast cancer models of ESR1-wild type and ESR1-mutation-bearing disease; assay: nonclinical activity in ER+ breast cancer models
[11] = human steady-state total drug exposure, GDC-9545 versus fulvestrant; assay type: in vivo; settings: GDC-9545 30 mg QD versus fulvestrant 500 mg IM monthly
ER = target: T1, ER (Homo sapiens, UniProt P03372); assay: competition with estrogens for binding to the ER
T1 sequence (P03372 1-595): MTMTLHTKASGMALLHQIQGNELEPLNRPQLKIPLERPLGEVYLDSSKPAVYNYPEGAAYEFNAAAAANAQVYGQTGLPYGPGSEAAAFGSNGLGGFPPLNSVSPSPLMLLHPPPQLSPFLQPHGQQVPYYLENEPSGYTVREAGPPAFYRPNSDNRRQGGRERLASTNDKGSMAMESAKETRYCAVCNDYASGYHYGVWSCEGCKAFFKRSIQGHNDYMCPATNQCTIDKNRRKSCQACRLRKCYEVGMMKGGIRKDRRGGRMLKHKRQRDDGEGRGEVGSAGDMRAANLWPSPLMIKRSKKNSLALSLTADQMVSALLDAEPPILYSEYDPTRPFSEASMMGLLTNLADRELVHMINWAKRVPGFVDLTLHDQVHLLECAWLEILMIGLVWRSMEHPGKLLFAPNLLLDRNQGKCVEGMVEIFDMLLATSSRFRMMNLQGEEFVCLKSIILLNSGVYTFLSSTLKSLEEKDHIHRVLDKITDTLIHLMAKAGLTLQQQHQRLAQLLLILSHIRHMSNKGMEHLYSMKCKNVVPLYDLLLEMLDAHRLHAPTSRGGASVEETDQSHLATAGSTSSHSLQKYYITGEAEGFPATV

[12] = system: ER, wild-type and ESR1-mutant contexts; assay: in vitro cell and biochemical assays, potency versus fulvestrant
[13] = system: ESR1 wildtype MCF-7 (PIK3CA.E545K) cells; assay: CyQUANT relative viability, MCF-7 wildtype ESR1; assay type: cell-based; settings: 300 nM GDC-9545, 80 nM GDC-0077, alone or combined; 0.1 nmol/L E2; 6 to 8 days
Procedure: as §1
ESR1 wildtype MCF-7 (PIK3CA.E545K) and T-47D (PIK3CA.H1047R) cells, and engineered ESR1 mutant cells [MCF-7.ER.Y537S, T-47D.ER.D538G] were grown under standard cell culture conditions in RPMI media with 10% fetal bovine serum. One day prior to the addition of drugs, cells were seeded in 384-well plates in phenol red-free RPMI with 10% charcoal-stripped fetal bovine serum in order to deprive the cells of hormones. Single agent 300 nM GDC-9545, 80 nM GDC-0077, 125 nM palbociclib or a combination thereof, were tested in quadruplicate in the presence of 0.1 nmol/L estradiol (E2) during a 6-day or 8-day incubation period. The absence of E2 in the media (−E2) serves to mimic treatment with an Aromatase Inhibitor (AI). The combination of E2 withdrawal plus palbociclib—reflecting the current standard of care for metastatic breast cancer—was included. […] The relative number of viable cells at the 6/8-day timepoint was determined by CyQUANT (ThermoFisher, C7026).

oral bioavailability = settings: in vivo
[14] = 6-mg, 9-mg, or 12-mg QD starting dose, single agent
[15] = CR, PR and/or SD for 24 weeks, RECIST v1.1

## C[C@]12CC[C@@H]3c4ccc(O)cc4C[C@@H](CCCCCCCCC[S+]([O-])CCCC(F)(F)C(F)(F)F)[C@H]3[C@@H]1CC[C@@H]2O (stereo partly shown) [fulvestrant]
Frontline patients
  clinical benefit compared with anastrozole: benefit over anastrozole
[1]
  efficacy in xenograft models: less efficacious than GDC-9545

## C[C@H](Nc1ccc2c(c1)OCCn1cc(N3C(=O)OC[C@H]3C(F)F)nc1-2)C(N)=O [GDC-0077, (2S)-2-[[2-[(4S)-4-(Difluoromethyl)-2-oxo-3-oxazolidinyl]-5,6-dihydroimidazo[1,2-d][1,4]benzoxazepin-9-yl]amino]propanamide]
pAkt, pPRAS40, pS6RP
  downstream PI3K pathway markers pAkt, pPRAS40, pS6RP: reduces downstream PI3K pathway markers
[2]
  apoptosis: induces apoptosis
  proliferation: inhibits proliferation
[3]
  anti-proliferative effect / relative viability: did not achieve the same anti-proliferative activity as the combination of the agents
[4]
  less potent biochemical inhibition of other Class I PI3Ks (selectivity): > 300 fold
Mutant p110a
  degradation of mutant p110a: specifically degrades mutant p110a
[5]
  tumor growth: inhibits tumor growth
[6]
  inhibition of PI3K-α: potent and selective inhibitor
[7]
  potency in cells bearing mutant p110a over cells bearing wild-type p110a: increased potency
[8]; [14]
  patients achieving PRs: 5 patients
  patients achieving PRs, percentage: 25%
[8]; [15]
  patients achieving clinical benefit: 9 patients
  patients achieving clinical benefit, percentage: 45%

## C[C@@H]1Cc2c([nH]c3ccccc23)[C@@H](c2c(F)cc(NC3CN(CCCF)C3)cc2F)N1CC(F)(F)CO [GDC-9545]
[9]
  plasma protein binding compared with fulvestrant: lower plasma protein binding
T-47D.ER.D538G cells
  anti-proliferative effect / relative viability: considerably more impactful than E2 withdrawal
[3]
  anti-proliferative effect / relative viability: reduced cell proliferation relative to control treated cells; also recorded: did not achieve the same anti-proliferative activity as the combination of the agents
MCF-7.ER.Y537S cells
  anti-proliferative effect / relative viability: reduced cell numbers relative to the control condition
[10]
  nonclinical activity: robust nonclinical activity
[11]
  human steady-state total drug exposure relative to fulvestrant: approximately 10 fold
ER
  potency of competition with estrogens for binding to the ER: low nanomolar potency
[12]
  potency relative to fulvestrant: up to 10 times
[13]
  anti-proliferative effect / relative viability: greater impact on cell viability versus estrogen withdrawal
Oral bioavailability
  oral bioavailability: orally bioavailable
